Earlier results on two molecules are cited in US10543230B2, “Redox signaling gel formulation” (RDG Holdings, Inc., priority 2013, dated 2020).

The conditions of the data set: pH around 7.0, room temperature.

For the molecule `O=[O+][O-]` [dissolved ozone (O3), ozone], the half-life entry was “about 20 min”.

Turning to `[O]O` [superoxide free radicals (O2*-), superoxide], the half-life is listed as 10's of milliseconds.
